Results published in the NIST ThermoML archive (doi:10.1016/j.fluid.2015.06.015).
Numbers after ± are expanded uncertainties.

Key:
[1] = DTA; for Normal melting temperature: Crystal 1
[2] = Molar enthalpy of transition or fusion; conditions: Crystal 1; DSC

Row | Compound | Normal melting temperature [1] | Molar enthalpy of transition or fusion [2] | Triple point temperature ([1]; Crystal 2) | Triple point temperature ([1]; Crystal 3)
1 | CCCCCCCCCC(=O)O [decanoic acid] | 32.33 ± 0.41 °C | 6.51 ± 0.217 kcal/mol |  | 
2 | CCCCCCCCCCCCO [dodecan-1-ol] | 24.38 ± 0.39 °C | 9.19 ± 0.335 kcal/mol | 296.95 ± 0.39 K | 291.04 ± 0.7 K
3 | CCCCCCCC/C=C\CCCCCCCC(=O)OCC(COC(=O)CCCCCCC/C=C\CCCCCCCC)OC(=O)CCCCCCC/C=C\CCCCCCCC [1,2,3-tri(cis-9-octadecenoyl)glycerol] | 5.42 ± 0.39 °C | 27.4 ± 0.598 kcal/mol | 258.99 ± 0.66 K | 
4 | CCCCCCCCCCCC(=O)O [dodecanoic acid] | 45.33 ± 1 °C | 8.27 ± 0.502 kcal/mol | 317.91 ± 0.46 K | 
5 | CCCCCCCCCCO [decan-1-ol] | 6.96 ± 0.56 °C | 7.09 ± 0.43 kcal/mol | 275.94 ± 0.68 K | 
6 | CCCCCCCCCCCCCCO [1-tetradecanol] | 38.0 ± 0.53 °C | 10.9 ± 0.454 kcal/mol | 310.06 ± 0.78 K | 
7 | CCCCCCCCCCCCCC(=O)O [tetradecanoic acid] | 55.78 ± 0.5 °C | 10.5 ± 0.222 kcal/mol | 327.95 ± 0.7 K | 
